Values after ≈ are worked out from the molar mass of the structure shown.
Legend:
[1] = system: PC3 prostate cancer cells; test: cells; conditions: Homo sapiens, PC-3, 48 h, read-out: IC50 PC3
[2] = system: HCT-15 human colon cancer cells; test: cells; conditions: HCT-15, 48 h, read-out: IC50 HCT-15
Experimental: Cells are incubated for 48 hr with different equivalent doxorubicin concentrations and IC50 values in terms of doxorubicin were calculated using MTT assay.

[3] = system: PC3 cells; test: MTT cytotoxicity assay of lupeol and dendrimer-lupeol conjugates; format: cell-based; conditions: Homo sapiens, PC-3, 48 h, read-out: percentage inhibition (cytotoxic effect, MTT)
Experimental: Human prostate cancer cells (PC-3 cells) are obtained from NCCS, Pune, India. The cells are grown in RPMI 1640 medium supplemented with 10% of bovine fetal serum and antibiotics (100 IU of penicillin/[…] of streptomycin). The cells are maintained in a 25 cm^2 T-flask and incubated at 37° C. under 5% CO2 in a humidified atmosphere. The cell viability is measured by staining the cells with trypan blue and counted in a haemocytometer under a light microscope.
The assay is performed in triplicates.
The cytotoxicity is quantitatively estimated by a non-radioactive, colorimetric assay system using a tetrazolium salt, 3-[4,5-dimethylthiazol-2-yl]-2,5-diphenil-tetrazolium bromide (MTT).
The cytotoxic effect of lupeol and the dendrimer lupeol conjugate is determined using PC3 cells. […] Doxorubicin is used as positive control for each experiment. […] This clearly showcases that the increase in cytotoxic activity of the dendrimer-lupeol conjugate is not due to the dendrimer or lupeol alone but because of the conjugate of dendrimer and lupeol.

IC50 [1] | IC50 [2] | SMILES | inhibition at 10 µg/mL [3]
5.13 µg/mL (≈ 9.45 µM) | 4.77 µg/mL (≈ 8.78 µM) | COc1cccc2c1C(=O)c1c(O)c3c(c(O)c1C2=O)C[C@@](O)(C(=O)CO)C[C@@H]3O[C@H]1C[C@H](N)[C@H](O)[C@H](C)O1 [Free doxorubicin, doxorubicin] | 
 |  | C=C(C)[C@@H]1CC[C@]2(C)CC[C@]3(C)[C@H](CC[C@@H]4[C@@]5(C)CC[C@H](O)C(C)(C)[C@@H]5CC[C@]43C)[C@@H]12 [free lupeol, lupeol] | 7.74%

Reference: US9700632B2, “Dendrimers, conjugates and methods thereof” (Centre for BioSeparation Technology—VIT, priority 2012, dated 2017)
